Assay [1] deals with T1, GABA-A receptor; alpha-5/beta-3/gamma-2 (Homo sapiens, UniProt P18507+P28472+P31644).
T1 sequence (P18507 whole entry): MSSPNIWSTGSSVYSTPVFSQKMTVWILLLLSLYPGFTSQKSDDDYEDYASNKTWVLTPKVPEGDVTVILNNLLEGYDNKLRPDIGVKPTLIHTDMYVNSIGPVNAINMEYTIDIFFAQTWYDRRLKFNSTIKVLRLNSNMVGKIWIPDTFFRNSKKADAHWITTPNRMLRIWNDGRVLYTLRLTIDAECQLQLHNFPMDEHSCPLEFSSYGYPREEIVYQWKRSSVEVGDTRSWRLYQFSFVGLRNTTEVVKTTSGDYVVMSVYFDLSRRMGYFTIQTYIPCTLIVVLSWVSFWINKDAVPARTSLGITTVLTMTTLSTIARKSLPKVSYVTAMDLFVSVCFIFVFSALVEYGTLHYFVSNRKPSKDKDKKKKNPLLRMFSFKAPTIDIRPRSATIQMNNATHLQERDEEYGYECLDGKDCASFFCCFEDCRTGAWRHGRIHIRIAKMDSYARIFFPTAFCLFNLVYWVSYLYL
T1 sequence (P28472 whole entry): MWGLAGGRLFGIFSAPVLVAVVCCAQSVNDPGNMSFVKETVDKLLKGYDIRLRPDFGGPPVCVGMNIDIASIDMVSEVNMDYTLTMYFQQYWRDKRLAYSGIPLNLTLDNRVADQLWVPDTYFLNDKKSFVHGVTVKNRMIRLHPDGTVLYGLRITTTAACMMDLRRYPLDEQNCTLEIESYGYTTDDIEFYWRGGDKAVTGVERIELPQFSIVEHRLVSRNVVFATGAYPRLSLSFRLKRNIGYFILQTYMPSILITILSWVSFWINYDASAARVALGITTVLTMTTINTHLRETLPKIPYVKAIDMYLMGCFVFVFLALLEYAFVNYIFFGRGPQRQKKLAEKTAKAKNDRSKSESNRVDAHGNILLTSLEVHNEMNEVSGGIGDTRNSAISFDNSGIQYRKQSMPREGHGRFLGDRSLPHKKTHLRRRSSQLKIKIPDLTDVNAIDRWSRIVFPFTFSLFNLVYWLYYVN
T1 sequence (P31644 whole entry): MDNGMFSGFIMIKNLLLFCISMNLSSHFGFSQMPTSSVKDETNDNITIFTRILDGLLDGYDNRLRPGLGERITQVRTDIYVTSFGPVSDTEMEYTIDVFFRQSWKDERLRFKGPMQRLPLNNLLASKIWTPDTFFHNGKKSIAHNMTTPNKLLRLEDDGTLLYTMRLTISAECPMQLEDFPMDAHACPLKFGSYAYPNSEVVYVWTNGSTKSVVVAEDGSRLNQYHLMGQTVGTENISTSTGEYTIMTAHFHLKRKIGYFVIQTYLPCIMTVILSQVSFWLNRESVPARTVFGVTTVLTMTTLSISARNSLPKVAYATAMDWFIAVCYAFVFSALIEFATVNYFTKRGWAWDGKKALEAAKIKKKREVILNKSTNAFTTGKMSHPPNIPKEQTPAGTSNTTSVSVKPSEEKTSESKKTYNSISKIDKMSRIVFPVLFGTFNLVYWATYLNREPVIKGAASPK
Description: Displacement of [3H]Flumazenil from cloned human GABA alpha-5-beta-3-gamma-2 receptor expressed in HEK293 cells. The assay is classed as cell-based.

Assay [2] concerns HEK293. Nature of the assay: Selectivity ratio of Ki for cloned human GABA alpha-1-beta-3-gamma-2 receptor expressed in HEK293 cells to Ki for cloned human GABA alpha-5-beta-3-gamma-2 receptor expressed in HEK293 cells. The assay is classed as cell-based.
Assay [3] has as its system HEK293. Description: Selectivity ratio of Ki for cloned human GABA alpha-2-beta-3-gamma-2 receptor expressed in HEK293 cells to Ki for cloned human GABA alpha-5-beta-3-gamma-2 receptor expressed in HEK293 cells. The assay is classed as cell-based.
Assay [4] has as its system HEK293. Description: Selectivity ratio of Ki for cloned human GABA alpha-3-beta-3-gamma-2 receptor expressed in HEK293 cells to Ki for cloned human GABA alpha-5-beta-3-gamma-2 receptor expressed in HEK293 cells. The class given is cell-based.
The target in assay [5] is GABA-A receptor; alpha-5/beta-3/gamma-2 (Homo sapiens) (UniProt P18507+P28472+P31644). Nature of the assay: Inverse agonist activity at human GABA alpha-5-beta-3-gamma-2 receptor expressed in Xenopus laevis oocyts by electrophysiology assay relative to GABA. The class given is functional.
Assay [6] addresses GABA A receptor alpha-5/beta-3/gamma-2 (Rattus norvegicus) (UniProt P18508+P19969+P63079). Nature of the assay: Inverse agonist activity at rat GABA alpha-5-beta-3-gamma-2 receptor expressed in HEK293 cells by electrophysiology assay relative to GABA. The class given is functional, cell-based.

Consider `Brc1ccc2c(c1)-c1ncnn1Cc1c(-c3cccs3)ncn1-2`, for which the inhibition constant (Ki) in assay [1] was found to be 4 nM. Also, the Ratio Ki amounted to 27 in assay [2], 22 in assay [3] and 16 in assay [4]. Moreover, the Efficacy in assay [5] was -10%.
In turn, `Clc1ccc2c(c1)-c1ncnn1Cc1c(C3CC3)ncn1-2` showed an inhibition constant Ki in assay [1] of 9.4 nM. The Ratio Ki in assay [2] turned out to be 6; in assay [3], 7; in assay [4] it was 5. For the same compound, the Efficacy in assay [6] was -21%.
For `FC(F)c1ccc2c(c1)-c1ncnn1Cc1c(Cl)ncn1-2` the same measures were 1.1 nM, 19, 36, 15 and -42%.
For `CC(=O)Nc1ccc2c(c1)-c1ncnn1Cc1c(Cl)ncn1-2` the same measures were 2.9 nM, 14, 19, 10 and -34%.
For `Cc1ncn2c1Cn1ncnc1-c1cc(OC(F)(F)F)ccc1-2` the same measures were 50 nM, 10, 29, 24 and -41%.
As for `Clc1ncn2c1Cn1ncnc1-c1cc(NC3CC3)ccc1-2`, in assay [1], the inhibitory constant (Ki) worked out at 2.2 nM. The Ratio Ki in assay [2] is 10; in assay [3], 43; in assay [4], 36. For the same compound, the Efficacy in assay [6] is -37%.
For `Cc1ccc2c(c1)-c1ncnn1Cc1c(Cl)ncn1-2` the same measures were 1.8 nM, 11, 23, 12 and -37%.
As to `CCC(F)(F)c1ncn2c1Cn1ncnc1-c1cc(F)ccc1-2`, the affinity in assay [1], expressed as Ki, was 3.2 nM. In addition, the Ratio Ki in assay [2] was 5; in assay [3], 3; in assay [4], 2. Further, the Efficacy in assay [6] was -27%.
As for `Cc1ncn2c1Cn1ncnc1-c1cc(C(F)F)ccc1-2`, the inhibitory constant (Ki) in assay [1] was found to be 2.2 nM. Moreover, the values for the Ratio Ki in assay [2], in assay [3] and in assay [4] were 29, 62 and 30, respectively. Moreover, in assay [5], the Efficacy is -45%.
For `Cc1ncn2c1Cn1ncnc1-c1c(Cl)cccc1-2` the same measures were 1.2 nM, 0.6, 2, 1 and -45%.
For the compound `Clc1ncn2c1Cn1ncnc1-c1cc(C3CC3)ccc1-2`, affinity in assay [1] was put at a Ki of 1.2 nM. Further, the values for the Ratio Ki in assay [2], in assay [3] and in assay [4] were 23, 15 and 16, respectively. The Efficacy in assay [6] is -47%.
Take `Cc1ncn2c1Cn1ncnc1-c1cccc(F)c1-2`: the Ki in assay [1] is 64 nM. For the same compound, the Ratio Ki was found to be 12 in assay [2], 12 in assay [3] and 5 in assay [4]. The Efficacy in assay [5] was -50%.
`Cc1ncn2c1Cn1ncnc1-c1c(F)cccc1-2` yielded an inhibition constant (Ki) in assay [1] of 1 nM. Further, the values for the Ratio Ki in assay [2], in assay [3] and in assay [4] were 5, 13 and 6, respectively. The Efficacy in assay [5] was -42%.
The compound `Cc1ncn2c1Cn1ncnc1-c1cc(F)ccc1-2` returned a Ki in assay [1] of 3 nM. Further, the results for the Ratio Ki in assay [2], in assay [3] and in assay [4] were 6, 3 and 4, respectively. Further, the Efficacy in assay [6] is -38%.
In the case of `Cc1ccc2c(c1)-c1ncnn1Cc1c(C)ncn1-2`, in assay [1], affinity was put at a Ki of 9.2 nM. For the same compound, the Ratio Ki came to 11 in assay [2], 34 in assay [3] and 23 in assay [4]. Further, in assay [5], the Efficacy is -37%.
As to `Clc1ncn2c1Cn1ncnc1-c1ccccc1-2`, in assay [1], the inhibitory constant (Ki) is 0.3 nM. In addition, the Ratio Ki in assay [2] was determined as 13; in assay [3], 5; in assay [4], 2. Further, the Efficacy in assay [6] was -41%.
Regarding `CS(=O)(=O)Nc1ccc2c(c1)-c1ncnn1Cc1c(Cl)ncn1-2`, affinity in assay [1] was put at a Ki of 54 nM. The Ratio Ki turned out to be 7 in assay [2], 5 in assay [3] and 5 in assay [4]. Also, the Efficacy in assay [5] was -36%.
For `Cc1ncn2c1Cn1ncnc1-c1cc(C(F)(F)F)ccc1-2`, in assay [1], the inhibition constant Ki came out at 18 nM. For the same compound, the Ratio Ki in assay [2] came out at 29; in assay [3], 78; in assay [4], 29. The Efficacy in assay [5] was -32%.
Take `Cn1nccc1-c1ncn2c1Cn1ncnc1-c1cc(Br)ccc1-2`: the affinity in assay [1], expressed as Ki, was 9.7 nM. Also, the Ratio Ki in assay [2] was 26; in assay [3], 35; in assay [4] it was 22. In addition, the Efficacy in assay [5] is -33%.
For `O=C(Nc1ccc2c(c1)-c1ncnn1Cc1c(Cl)ncn1-2)C1CC1` the same measures were 16 nM, 2, 6, 5 and -48%.
Consider `Cc1cccc(-c2ncn3c2Cn2ncnc2-c2cc(Cl)ccc2-3)n1`, for which affinity in assay [1] was put at a Ki of 31 nM. Moreover, the values for the Ratio Ki in assay [2], in assay [3] and in assay [4] were 11, 11 and 8, respectively. In addition, the Efficacy in assay [6] was -12%.
In turn, `C#CCNC(=O)c1ncn2c1Cn1ncnc1-c1cc(F)ccc1-2` registered an inhibition constant Ki in assay [1] of 68 nM. The Ratio Ki in assay [2] came to 4; in assay [3], 1; in assay [4] it was 1. The Efficacy in assay [6] was -35%.
Take `Clc1ncn2c1Cn1ncnc1-c1cc(-n3ccnc3)ccc1-2`: the affinity in assay [1] corresponds to a Ki of 13 nM. Moreover, the Ratio Ki is 1 in assay [2], 2 in assay [3] and 1 in assay [4]. Moreover, the Efficacy in assay [6] was -7%.
For the compound `Cc1ncn2c1Cn1ncnc1-c1ccccc1-2`, the affinity in assay [1], expressed as Ki, was 2.6 nM. Besides, the Ratio Ki in assay [2] was determined as 16; in assay [3], 6; in assay [4], 4. Besides, the Efficacy in assay [6] was -44%.
With `N#Cc1ccc2c(c1)-c1ncnn1Cc1c(Cl)ncn1-2`, the inhibition constant (Ki) in assay [1] turned out to be 2.4 nM. Moreover, the Ratio Ki in assay [2] came out at 15; in assay [3], 16; in assay [4] it was 5. Further, in assay [6], the Efficacy was -27%.
For the compound `CCS(=O)(=O)c1ncn2c1Cn1ncnc1-c1cc(Cl)ccc1-2`, the Ki in assay [1] amounted to 215 nM. Further, the figures for the Ratio Ki in assay [2], in assay [3] and in assay [4] were 4, greater than 15 and 4, respectively. In addition, in assay [6], the Efficacy is -23%.
Regarding `CCCc1ncn2c1Cn1ncnc1-c1cc(Cl)ccc1-2`, affinity in assay [1] was put at a Ki of 1.6 nM. Moreover, the Ratio Ki was found to be 3 in assay [2], 5 in assay [3] and 3 in assay [4]. In assay [6], the Efficacy is -35%.
`Cc1nc(-c2ncn3c2Cn2ncnc2-c2cc(F)ccc2-3)no1` displayed a Ki in assay [1] of 0.2 nM. The Ratio Ki amounted to 3 in assay [2], 5 in assay [3] and 3 in assay [4]. Also, the Efficacy in assay [6] was -12%.
Compound `Clc1ncn2c1Cn1ncnc1-c1cc(-c3ccccc3)ccc1-2` registered an inhibition constant Ki in assay [1] of 6.3 nM. Besides, the Ratio Ki in assay [2] was 4; in assay [3] it was 5; in assay [4], 8. Besides, the Efficacy in assay [6] stood at 8%.

The values are drawn from ChEMBL document CHEMBL1154288, “The discovery and unique pharmacological profile of RO4938581 and RO4882224 as potent and selective GABAA alpha5 inverse agonists for the treatment of cognitive dysfunction” (Bioorg Med Chem Lett, 2009).
